Measurements published in US11292803B2, “Bioreducible N-oxide-based probes for imaging of hypoxia” (THE BOARD OF TRUSTEES OF THE UNIVERSITY OF ILLINOIS, priority 2018, dated 2022).

Experiments:
rat liver microsomes = assay: PA response after rat liver microsome incubation, tissue-mimicking phantom; type: biochemical; settings: 2 h incubation with RLM, quenched with acetonitrile
Method: FIG. 4. Hypoxia-selective response of HyP-1 in vitro. […] Dashed lines indicate positioning of FEP tubes.
Tissue phantoms were prepared by suspending agarose (4 g) in a solution of 2% milk (2 mL) and deionized H2O (78 mL). The suspension was then heated in a microwave oven until a viscous gel was produced (30-50 seconds). The gel was transferred to a mold made by drilling holes through a 50 mL centrifuge tube and placing FEP tubes (0.08″ diameter) through the holes to create spaces for samples. After cooling the gel for a minimum of 3 hours, the solidified phantom was removed from the mold and cut with a razor blade such that the distance from the sample holes to the phantom's edges was 1.0 cm. To image samples, sample solutions were pipetted into FEP tubing (0.08″ diameter, cut to 10 cm long) which was inserted into the phantom and sealed by folding over the ends and securing with additional tubing (0.12″ diameter, cut to 5 mm long). Images were acquired using the Step and Shoot mode with 120 angles and 10 pulses per angle. Data was analysed using OsiriX Lite software (Version 8.0). Thick slab processing was used to visualize accumulated signal over 5 mm. ROIs of equal area were drawn around areas containing signal, and mean PA signal in each ROI was recorded.

[1] = Response of probe to Fe(II)
Method: FIG. 8. Ratiometric fluorescence turn-on response of HyP-1 (2 μM) in the presence of FeSO4 (20 μM) and FeSO4 (20 μM)+GSH (1 mM) in 50 mM HEPES buffer (pH 7.4, 0.1% v/v CrEL) after 1 h incubation at 37° C.
Fe(II)-mediated reduction of N-oxides has been exploited previously for the development of several fluorescent probes for this metal ion, thus it was critical for us to determine the response of HyP-1 to Fe(II). […] However, because intracellular concentrations of free iron are low due to sequestration by ferritin, this was not anticipated to be a major source of HyP-1 activation in vivo.

[2] = Chemostability under ambient light and temperature; type: physicochemical; settings: 10 μM solution, up to 5 days
Method: FIG. 11. Fluorescence intensity (Ex.=670 nm) of HyP-1 (2 μM) at the indicated time points during extended incubation in 0.1 M potassium phosphate buffer (pH 7.4, 0.1% v/v CrEL) under ambient light and temperature. Represented as mean±SD (n=3).
(§1) In addition to Fe(II), the response of HyP-1 to a variety of alkali, alkaline earth and transition metals was also determined. […] To further evaluate the stability of HyP-1, a 10 μM solution of the probe was exposed to ambient light and temperature for up to 5 days. Additionally, a 10 μM solution of HyP-1 supplemented with human plasma was incubated at 37° C. for 3 hours. […] As mentioned previously, a major limitation of 2-nitroimidazole-based hypoxia probes is their susceptibility to oxygen-independent reduction via two-electron processes, such as by bacterial nitroreductases. […] Finally, the photostability of both HyP-1 and red-HyP-1 was evaluated via continuous PA image acquisition at 770 nm over the course of 1 hour.

[3] = system: purified bacterial nitroreductase; assay: Incubation with purified nitroreductase; type: biochemical; settings: NADH, 37° C., 2 h
Method: FIG. 15. […] For the nitroreductase experiment, HyP-1 (2 μM) was incubated in the presence of nitroreductase (0.5 μg/mL) and NADH (100 μM) in 0.1 M potassium phosphate buffer (pH 7.4) at 37° C. for 2 h. For the bacterial experiment, bacteria were grown overnight, and cells were lysed via sonication. The suspension was centrifuged at 4000 rpm for 10 min, and the supernatant was removed. HyP-1 (2 μM) was incubated with cell lysate solution (1 mL) at 37° C. for 2 h.
as §1

[4] = system: 4T1 murine mammary carcinoma cells; assay: Ratiometric fluorescence microscopy in living cells; type: cell-based; settings: 4T1 cells, epifluorescence microscope Cy7/Cy5, after 6 hours
Method: After establishing excellent selectivity and responsiveness to hypoxic conditions in vitro, the performance of HyP-1 in living cells was evaluated before moving to in vivo studies. 4T1 murine mammary carcinoma cells were treated with a […] solution of HyP-1 and incubated at 37° C. either in a standard atmosphere containing 20% oxygen (normoxic conditions), or in an airtight chamber containing <0.1% oxygen (hypoxic conditions). Imaging was performed at 2, 4 and 6 hours using an epifluorescence microscope equipped with Cy5 and Cy7 filter sets to visualize HyP-1 and red-HyP-1, respectively (FIG. 5a).
Authenticated 4T1 cells were purchased from ATCC. Cells were grown in RPMI 1640 medium supplemented with 10% fetal bovine serum. Cells were cultured at 37° C. in 5% CO2 and 20% 02 for normoxic conditions. Hypoxic cell culture was performed by incubating cells in a sealed container with a Mitsubishi AnaeroPack™ anaerobic gas generator. Hypoxic conditions were verified with the use of a Mitsubishi RT Anaero-Indicator.
For fluorescence microscopy, cells were plated in 4-well chamber slides at an initial density of 1×10^4 cells/mL and allowed to grow until 60-80% confluent (approximately 6 days). Media was removed and cells were washed with PBS. […] Images were obtained using Cy5 and Cy7 filter cubes and analysed using ImageJ software (Version 1.50i).

4T1 tumour allografts = assay: In vivo PA imaging of hypoxic tumour model; design: species or system BALB/c mice; settings: tail vein injection 0.3 mg/kg; 770 nm
Method: Next, attention was turned to the application of HyP-1 for hypoxia detection using PA imaging. HyP-1 (50 μL, 0.3 mg/kg) was administered to tumour-bearing mice intravenously via tail vein injection, and PA images of both the tumour-bearing and control flanks were acquired at 1, 3 and 5 hours following injection. […] The 3D-reconstructions of the PA images enabled visualization of specific areas within the tumour where signal was highest, a significant improvement compared to the minimally resolved signal obtained using fluorescence imaging (FIG. 6b). It was hypothesized that these areas of high intensity correlate with the highest concentrations of red-HyP-1, and therefore with regions of most severe hypoxia.
All in vivo imaging experiments were performed with the approval of the Institutional Animal Care and Use Committee of the University of Illinois at Urbana-Champaign, following the principles outlined by the American Physiological Society on research animal use. […]
Prior to imaging, hair was removed from the lower body half by shaving and treating with a topical hair removal cream. […] Data was analysed using OsiriX software. […] ROIs of equal area were drawn to include all visible signal in the image, and mean PA signal in each ROI was recorded. Change in PA signal was calculated by subtracting signal from images taken prior to injection from those at given time points.

## CC[N+]([O-])(CC)c1ccc(-c2cc(-c3ccccc3)c3n2[B-](F)(F)[N+]2=C(c4ccc(OC)cc4)C=C(c4ccccc4)C2=N3)cc1 [HyP-1, 4-(5,5-difluoro-7-(4-methoxyphenyl)-1,9-diphenyl-5H-5λ^4,6λ^4-dipyrrolo[1,2-c:2′,1′-f][1,3,5,2]triazaborinin-3-yl)-N,N-diethylaniline oxide]
Rat liver microsomes
  PA signal (770 nm), hypoxic reaction versus normoxic: 4 fold
[1]; 20 μM FeSO4 + 1 mM GSH, HEPES buffer, 1 h
  ratiometric turn-on: 35 fold
[1]; 20 μM FeSO4 in HEPES buffer, 1-hour incubation
  ratiometric turn-on: 8 fold
[2]
  decomposition under ambient light and temperature: no substantial decomposition
[3]
  conversion to red-HyP-1: minimal conversion
[4]
  ratiometric fluorescence response, hypoxic versus normoxic control: 1.6 fold
4T1 tumour allografts
  PA signal increase in control flank: no increase
  mean PA signal increase in tumour tissue: 20.5 a.u.
